Test results from patent US11744896B2, “Compositions, use, and method for CDK2-PROTACs for cancer therapy and hearing loss” (Creighton University, priority 2020, dated 2023).
pIC50: −log10 of the molar value. Entries after “also recorded” stand apart in the source; their conditions may differ. Where two headings read alike, the source gives them in different places.

Columns and labels:
[1] = system: cisplatin-induced hearing loss; settings: mouse; previous work; cited from earlier work
[2] = system: zebrafish lateral line neuromast hair cells; settings: zebrafish lateral line neuromasts, background statement, cited from earlier work
neuromast hair cells = experiment: Zebrafish neuromast hair cell protection from kainic acid; format: in vivo, zebrafish (Danio rerio); settings: kainic acid 300 μM for 50 min after pre-treatment
Description: Four days post-fertilization (dpf) zebrafish (Danio rerio) larvae were obtained by pair mating of adult TuAB fish maintained at Creighton University by standard methods approved by the Institutional Animal Care and Use Committee. Experimental fish were maintained at 28.5° C. in E3 media (5 mM NaCl, 0.17 mM KCl, 0.33 mM CaCl2 and […] MgSO4, pH 7.2) until the day of the experiment.
(§1) The next day fish were transferred to a fresh solution of kainic acid 300 μM for 50 min, led recover in fresh E3 media for 2 hours, and fixed with 4% paraformaldehyde. Animals were processed for immunofluorescence analysis as described for the cisplatin treatments. After the 24 hours incubation with PROTAC-8 and before the incubation with the ototoxin, some fish were collected for immunoblot analysis of CDK2 abundance.
(§2) Control animals were exposed to 0.1% DMSO in E3 media. Images were taken employing a Zeiss LSM 710 confocal microscope with a 63× oil objective.
For the screening of the effect of PROTAC-8, neuromast hair cell counts were performed manually, employing a Zeiss AxioSkop 2 fluorescence microscope with a 40× oil objective. Confocal imaging was performed using a Zeiss LSM 710 confocal laser scanning image system with a 63× oil objective. Images were captured at room temperature with automatically set sectioning. The acquired images were processed with ZEN black edition software. […]

cochlear explants = settings: cited from earlier work
[3] = system: zebrafish lateral line neuromast hair cells; experiment: Zebrafish neuromast hair cell protection from cisplatin; format: in vivo; settings: for protection of zebrafish lateral line neuromast hair cells from cisplatin toxicity: pre-incubation, then co-incubation with cisplatin for 6 hours
From the text: Four days post-fertilization (dpf) zebrafish (Danio rerio) larvae were obtained by pair mating of adult TuAB fish maintained at Creighton University by standard methods approved by the Institutional Animal Care and Use Committee.
Animals were immunostained for the hair cell marker, otoferlin (HCS-1, DSHB), and process for fluorescence microscopy. Otic, middle, and opercular neuromasts were identified, and hair cells were manually counted using a Zeiss AxioSkop 2 fluorescence microscope with a 40× oil objective.
as §2
For the screening of the effect of PROTAC-8, neuromast hair cell counts were performed manually, employing a Zeiss AxioSkop 2 fluorescence microscope with a 40× oil objective. Confocal imaging was performed using a Zeiss LSM 710 confocal laser scanning image system with a 63× oil objective. Images were captured at room temperature with automatically set sectioning. The acquired images were processed with ZEN black edition software. Z-stack images are presented as flat Z-projections.

CDK2 [4] = experiment: CDK2 abundance in total zebrafish lysates (immunoblot); format: in vivo, zebrafish (Danio rerio); settings: at concentrations of 0.1 nM and 1 μM
Description: as §1
(§3) Specific bands were quantified using ImageJ (NIH).
Further to find the effect of AZD5438-PROTAC 8 (Example 2) in protecting zebrafish hair cells from cisplatin otoxicity, zebrafish were pre-incubated with AZD5438-PROTAC 8 and then co-incubated with cisplatin for six hours. […] To check the degradation of CDK2 in zebrafish, fish were treated with AZD5438-PROTAC 8 in different concentration and total zebrafish lysates used for immunoblots (FIG. 12B). AZD5438-PROTAC 8 degrades CDK2 at concentrations of 0.1 nM and 1 μM (FIGS. 12B-12C).

CDK2 [5] = molecular target: CDK2 (Mus musculus, UniProt P97377); settings: HEI-OC1 cells; for CDK2 degradation (immunoblot): 0.1 nM to 1 μM
Description: HEI-OC1 cells were maintained in DMEM with 10% of Fetal bovine serum at 33° C. in a 10% CO2 atmosphere. […] Cells were harvested in RIPA buffer (NaCl 150 mM, Tris-HCl 50 mM, Nonidet-40 1%, Sodium deoxycholate 0.5%, SDS 0.1%, pH 7.4) containing protease (Sigma-Aldrich, MO P8340) and phosphatase inhibitors (ThermoFisher, CA, A32957) for immunoblot analysis.
Lysates were prepared after a 24 hours incubation and processed for Western blot analysis.
Membranes were blocked for 1 hour at room temperature with 3% milk followed by overnight incubation with the primary antibody in 3% milk. After several washes and the secondary incubation for 1 hour, membranes were developed employing an iBright FL1000 (ThermoFisher, CA). Immunoblots were stripped and probed for β-actin as the loading control. Specific bands were quantified using ImageJ (NIH).

CDK2 [6] = molecular target: T1, CDK2 (Homo sapiens, UniProt P24941); experiment: CDK2 degradation in HeLa cell line (immunoblot); format: cell-based; settings: HeLa cells incubated overnight, different concentrations
T1 construct: endogenous in cells; host or cells: HeLa
Description: (§4) To test the efficacy of the synthesized AZD5438-PROTACs, HeLa cells were incubated overnight with different concentrations of AZD5438-PROTAC Examples 1, 2, 5, and 6.

CDK1, CDK5, CDK7 or CDK9 = experiment: Abundance of closely related CDKs in HEI-OC1 cells (immunoblot); format: cell-based; settings: 24 hours
From the text: as §3

CDK1 = molecular target: T2, CDK1 (Homo sapiens, UniProt P06493); experiment: CDK1 degradation in HeLa cell line (immunoblot); format: cell-based; settings: HeLa cells incubated overnight
T2 construct: endogenous in cells; host or cells: HeLa
Description: as §4

CDK9 = molecular target: T3, CDK9 (Homo sapiens, UniProt P50750); experiment: CDK9 degradation in HeLa cell line (immunoblot); format: cell-based; settings: HeLa cells incubated overnight
T3 construct: endogenous in cells; host or cells: HeLa
Description: as §4

T3 sequence (P50750 whole entry): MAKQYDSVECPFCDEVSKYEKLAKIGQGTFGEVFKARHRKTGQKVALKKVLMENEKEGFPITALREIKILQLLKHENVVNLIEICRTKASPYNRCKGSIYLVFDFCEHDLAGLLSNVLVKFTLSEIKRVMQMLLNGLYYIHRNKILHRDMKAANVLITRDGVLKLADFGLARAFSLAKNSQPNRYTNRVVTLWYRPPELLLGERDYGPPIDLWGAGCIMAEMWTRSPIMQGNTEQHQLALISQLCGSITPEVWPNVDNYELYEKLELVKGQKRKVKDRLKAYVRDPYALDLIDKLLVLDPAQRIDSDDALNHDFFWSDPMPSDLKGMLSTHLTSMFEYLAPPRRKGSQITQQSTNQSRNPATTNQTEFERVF
T2 sequence (P06493 whole entry): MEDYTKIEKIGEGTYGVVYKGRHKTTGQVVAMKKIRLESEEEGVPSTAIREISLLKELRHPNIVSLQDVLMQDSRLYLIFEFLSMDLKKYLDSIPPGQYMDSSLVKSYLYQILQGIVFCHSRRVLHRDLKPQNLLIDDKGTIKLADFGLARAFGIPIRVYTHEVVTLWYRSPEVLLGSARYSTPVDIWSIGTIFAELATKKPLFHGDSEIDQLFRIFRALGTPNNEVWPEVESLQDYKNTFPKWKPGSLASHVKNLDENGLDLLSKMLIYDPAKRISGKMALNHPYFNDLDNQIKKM

| CDK2 degradation (immunoblot) (CDK2 [5]; 24 hours) | Compound | protection against cisplatin-induced ototoxicity / hearing loss in vivo [1] | protection of neuromast hair cells from kainic acid damage (neuromast hair cells) | CDK2 degradation in zebrafish (CDK2 [4]) | CDK2 degradation (immunoblot) (CDK2 [6]) | degradation / abundance of closely related CDKs (CDK1, CDK5, CDK7, CDK9); selectivity (CDK1, CDK5, CDK7 or CDK9) | further results |
| --- | --- | --- | --- | --- | --- | --- | --- |
|  | O=C(NC1CCNCC1)c1n[nH]cc1NC(=O)c1c(Cl)cccc1Cl [AT7519] | can prevent cisplatin-induced ototoxicity in vivo |  |  |  |  |  |
|  | Cc1ncc(-c2ccnc(Nc3ccc(S(C)(=O)=O)cc3)n2)n1C(C)C [AZD5438] | best protection against cisplatin-induced ototoxicity; also recorded: fully protects against cisplatin-induce hearing loss in mice by local delivery; also recorded: can prevent cisplatin-induced ototoxicity in vivo; also recorded: hair cell loss was reduced | able to protect the zebrafish lateral line neuromasts from cisplatin and kainic acid damage | without CDK2 degradation |  |  | protection of zebrafish lateral line against cisplatin ototoxicity (earlier studies) [2]: hair cell loss was reduced; protection of zebrafish lateral line against cisplatin ototoxicity (earlier studies) ([2]; listed as ACD5438): protects zebrafish lateral line against cisplatin ototoxicity; pIC50 (cochlear explants; cochlear explants, cisplatin, read-out: IC50, protection against cisplatin toxicity in cochlear explants): 8.30; protection against cisplatin-induced ototoxicity in mouse cochlear explants (cochlear explants; previous study): best protection against cisplatin-induced ototoxicity; protection of zebrafish lateral line neuromast hair cells from cisplatin toxicity [3]: able to protect the zebrafish lateral line neuromasts from cisplatin and kainic acid damage |
| did not show any CDK2 degradation | Cc1ncc(-c2ccnc(Nc3ccc(S(=O)(=O)CCCc4cn(CCOCCOCCOCCNc5cccc6c5C(=O)N(C5CCC(=O)NC5=O)C6=O)nn4)cc3)n2)n1C(C)C (centres unmarked) [Example 1, 2-(2,6-dioxopiperidin-3-yl)-4-((2-(2-(2-(2-(4-(3-((4-((4-(1-isopropyl-2-methyl-1H-imidazol-5-yl)pyrimidin-2-yl)amino)phenyl)sulfonyl)propyl)-1H-1,2,3-triazol-1-yl)ethoxy)ethoxy)ethoxy)ethyl)amino)isoindoline-1,3-dione] |  |  |  | only the treatment with AZD5438-PROTAC-8 resulted in the degradation of CDK2 | nor changes in the abundance of any of the closely related CDKs |  |
|  | Cc1ncsc1-c1ccc(CNC(=O)[C@@H]2C[C@@H](O)CN2C(=O)[C@@H](NC(=O)COCCn2cc(CCCS(=O)(=O)c3ccc(Nc4nccc(-c5cnc(C)n5C(C)C)n4)cc3)nn2)C(C)(C)C)cc1 [Example 2, (2S,4R)-4-hydroxy-1-((S)-2-(2-(2-(4-(3-((4-((4-(1-isopropyl-2-methyl-1H-imidazol-5-yl)pyrimidin-2-yl)amino)phenyl)sulfonyl)propyl)-1H-1,2,3-triazol-1-yl)ethoxy)acetamido)-3,3-dimethylbutanoyl)-N-(4-(4-methylthiazol-5-yl)benzyl)pyrrolidine-2-carboxamide] |  | able to protect the zebrafish lateral line neuromasts from cisplatin and kainic acid damage | degrades CDK2 | resulted in the degradation of CDK2 | selective for CDK2 degradation | CDK1 degradation (immunoblot) (CDK1): No significant degradation; CDK2 degradation on co-incubation with proteasome inhibitor MG-132 (CDK2 [5]; 100 nM PROTAC-8 and 300 nM MG-132, 24 hours): abolished CDK2 degradation; CDK2 degradation (CDK2 [5]; 24 hours, 100 nM concentration): around 50%; DC50 (CDK2 [5]; read-out: half maximal degradation concentration (DC50), CDK2 degradation): > 1000 nM; CDK9 degradation (immunoblot) (CDK9): No significant degradation; protection of zebrafish hair cells from cisplatin ototoxicity (FIG. 11A) ([3]; five-day post-fertilization fish, 1 hour pre-incubation, 6 hours co-incubation with cisplatin 400 μM): protects zebrafish hair cells from cisplatin otoxicity; protection of zebrafish lateral line neuromast hair cells from cisplatin toxicity ([3]; listed as AZD5438-PROTAC 8): significantly protects the zebrafish lateral line neuromasts from cisplatin toxicity; protection of zebrafish lateral line neuromast hair cells from cisplatin toxicity ([3]; listed as PROTAC-8): able to protect the zebrafish lateral line neuromasts from cisplatin and kainic acid damage; toxic effect of PROTAC alone on neuromast hair cells ([3]; zebrafish, without cisplatin (FIG. 11A)): did not show any toxic effect |
| did not show any CDK2 degradation | O=C1CCC(N2C(=O)c3cccc(NCCOCCOCCOCCn4cc(CO[C@H]5CC[C@H](NC(=O)c6n[nH]cc6NC(=O)c6c(F)cccc6F)CC5)nn4)c3C2=O)C(=O)N1 (some centres unmarked) [Example 3, 4-(2,6-difluorobenzamido)-N-((1r,4r)-4-((1-(2-(2-(2-(2-((2-(2,6-dioxopiperidin-3-yl)-1,3-dioxoisoindolin-4-yl)amino)ethoxy)ethoxy)ethoxy)ethyl)-1H-1,2,3-triazol-4-yl)methoxy)cyclohexyl)-1H-pyrazole-3-carboxamide] |  |  |  |  | nor changes in the abundance of any of the closely related CDKs |  |
| did not show any CDK2 degradation | Cc1ncsc1-c1ccc(CNC(=O)[C@@H]2C[C@@H](O)CN2C(=O)[C@@H](NC(=O)COCCn2cc(CO[C@H]3CC[C@H](NC(=O)c4n[nH]cc4NC(=O)c4c(F)cccc4F)CC3)nn2)C(C)(C)C)cc1 [Example 4, 4-(2,6-difluorobenzamido)-N-((1S,4r)-4-((1-(2-(2-(((S)-1-((2S,4R)-4-hydroxy-2-((4-(4-methylthiazol-5-yl)benzyl)carbamoyl)pyrrolidin-1-yl)-3,3-dimethyl-1-oxobutan-2-yl)amino)-2-oxoethoxy)ethyl)-1H-1,2,3-triazol-4-yl)methoxy)cyclohexyl)-1H-pyrazole-3-carboxamide] |  |  |  |  | nor changes in the abundance of any of the closely related CDKs |  |
